Measurements: patent US10111432B2, “Picolinamide N-oxide compounds with fungicidal activity” (Dow AgroSciences LLC, priority 2016, dated 2018)
Read-outs that look alike come from different tables or passages of the source.

Tests used:
[1] = tested on: Zymoseptoria tritici; assay: Fungicidal activity: leaf blotch of wheat (SEPTTR), disease control on wheat seedlings; format: in vivo; settings: for pest or weed control at 121.5 g/ha: low volume application, 121.5 g/H; for pest or weed control at 100 ppm: high volume application
Protocol: Technical grades of materials were dissolved in acetone, which were then mixed with nine volumes of water (H2O) containing 110 ppm Triton X-100. The fungicide solutions were applied onto wheat seedlings using an automated booth sprayer to run-off. All sprayed plants were allowed to air dry prior to further handling. All fungicides were evaluated using the aforementioned method for their activity vs. all target diseases, unless stated otherwise. Wheat leaf blotch and brown rust activity were also evaluated using track spray applications, in which case the fungicides were formulated as EC formulations, containing 0.1% Trycol 5941 in the spray solutions. Wheat plants (variety Yuma) were grown from seed in a greenhouse in 50% mineral soil/50% soil-less Metro mix until the first leaf was fully emerged, with 7-10 seedlings per pot. These plants were inoculated with an aqueous spore suspension of Zymoseptoria tritici either prior to or after fungicide treatments. After inoculation the plants were kept in 100% relative humidity (one day in a dark dew chamber followed by two to three days in a lighted dew chamber at 20° C.) to permit spores to germinate and infect the leaf. The plants were then transferred to a greenhouse set at 20° C. for disease to develop. When disease symptoms were fully expressed on the 1st leaves of untreated plants, infection levels were assessed on a scale of 0 to 100 percent disease severity. Percent disease control was calculated using the ratio of disease severity on treated plants relative to untreated plants.

[2] = tested on: Puccinia triticina; assay: Fungicidal activity: wheat brown rust (PUCCRT), disease control on wheat seedlings; format: in vivo; settings: for pest or weed control at 121.5 g/ha: low volume application, 121.5 g/H; for pest or weed control at 100 ppm: high volume application
Protocol: Technical grades of materials were dissolved in acetone, which were then mixed with nine volumes of water (H2O) containing 110 ppm Triton X-100. The fungicide solutions were applied onto wheat seedlings using an automated booth sprayer to run-off. All sprayed plants were allowed to air dry prior to further handling. All fungicides were evaluated using the aforementioned method for their activity vs. all target diseases, unless stated otherwise. Wheat leaf blotch and brown rust activity were also evaluated using track spray applications, in which case the fungicides were formulated as EC formulations, containing 0.1% Trycol 5941 in the spray solutions. Wheat plants (variety Yuma) were grown from seed in a greenhouse in 50% mineral soil/50% soil-less Metro mix until the first leaf was fully emerged, with 7-10 seedlings per pot. These plants were inoculated with an aqueous spore suspension of Puccinia triticina either prior to or after fungicide treatments. After inoculation the plants were kept in a dark dew room at 22° C. with 100% relative humidity overnight to permit spores to germinate and infect the leaf. The plants were then transferred to a greenhouse set at 24° C. for disease to develop. Fungicide formulation, application and disease assessment followed the procedures as described in the Example A. Results of the evaluations are shown below in Table 4.

[3] = 24 h, 1 day protectant, read-out: SEPTTR disease control, 1DP, LV activity at 121.5 g/H
[4] = 72 h, 3 day curative, read-out: SEPTTR disease control, 3DC, LV activity at 121.5 g/H
[5] = 24 h, 1 day protectant, read-out: PUCCRT disease control, 1DP, LV activity at 121.5 g/H
[6] = 24 h, 1 day protectant, read-out: SEPTTR disease control, 1DP, HV activity at 100 ppm
[7] = 72 h, 3 day curative, read-out: SEPTTR disease control, 3DC, HV activity at 100 ppm
[8] = 24 h, 1 day protectant, read-out: PUCCRT disease control, 1DP, HV activity at 100 ppm
[9] = 72 h, 3 day curative, read-out: PUCCRT disease control, 3DC, HV activity at 100 ppm
[10] = 72 h, 3 day curative, read-out: PUCCRT disease control, 3DC, LV activity at 121.5 g/H

COc1cc(Cl)ccc1C(c1ccc(Cl)cc1OC)[C@H](C)OC(=O)[C@H](C)NC(=O)c1c(O)c(OC)cc[n+]1[O-] [Compound 37]
pest or weed control at 121.5 g/ha [1, 3]: > 80%
pest or weed control at 121.5 g/ha [1, 4]: ≤ 80%
pest or weed control at 121.5 g/ha [2, 5]: > 80%

COc1ccc(C(c2ccc(OC)cc2)[C@H](C)OC(=O)[C@H](C)NC(=O)c2c(O)c(OC)cc[n+]2[O-])cc1 [Compound 26]
pest or weed control at 100 ppm [1, 6]: > 80%
pest or weed control at 100 ppm [1, 7]: > 80%
pest or weed control at 100 ppm [2, 8]: > 80%
pest or weed control at 100 ppm [2, 9]: > 80%

COc1cc(C(c2ccc(C)c(OC)c2)[C@H](C)OC(=O)[C@H](C)NC(=O)c2c(O)c(OC)cc[n+]2[O-])ccc1C [Compound 18]
pest or weed control at 121.5 g/ha [1, 3]: > 80%
pest or weed control at 121.5 g/ha [1, 4]: > 80%
pest or weed control at 121.5 g/ha [2, 5]: ≤ 80%
pest or weed control at 121.5 g/ha [2, 10]: ≤ 80%

COc1cc[n+]([O-])c(C(=O)N[C@@H](C)C(=O)O[C@@H](C)C(c2ccc(F)c(F)c2)c2ccc(F)c(F)c2)c1O [Compound 21]
pest or weed control at 121.5 g/ha [1, 3]: > 80%
pest or weed control at 121.5 g/ha [1, 4]: > 80%
pest or weed control at 121.5 g/ha [2, 10]: ≤ 80%

COc1cc[n+]([O-])c(C(=O)N[C@@H](C)C(=O)O[C@@H](C)[C@@H](c2ccccc2)c2ccc(F)c(C)c2)c1O [Compound 31]
pest or weed control at 100 ppm [1, 6]: > 80%
pest or weed control at 121.5 g/ha [1, 3]: > 80%
pest or weed control at 100 ppm [1, 7]: > 80%
pest or weed control at 121.5 g/ha [1, 4]: > 80%
pest or weed control at 100 ppm [2, 8]: > 80%
pest or weed control at 121.5 g/ha [2, 5]: > 80%
pest or weed control at 100 ppm [2, 9]: > 80%
pest or weed control at 121.5 g/ha [2, 10]: ≤ 80%

COc1cc[n+]([O-])c(C(=O)N[C@@H](C)C(=O)O[C@@H](C)C(c2cccc(C)c2)c2cccc(C)c2)c1O [Compound 25]
pest or weed control at 100 ppm [1, 6]: > 80%
pest or weed control at 121.5 g/ha [1, 3]: > 80%
pest or weed control at 100 ppm [1, 7]: > 80%
pest or weed control at 121.5 g/ha [1, 4]: > 80%
pest or weed control at 100 ppm [2, 8]: > 80%
pest or weed control at 121.5 g/ha [2, 5]: > 80%
pest or weed control at 100 ppm [2, 9]: > 80%
pest or weed control at 121.5 g/ha [2, 10]: > 80%

CC[C@H](OC(=O)[C@H](C)NC(=O)c1c(O)c(OC)cc[n+]1[O-])[C@H](Oc1ccccc1)C(C)C [Compound 8]
pest or weed control at 121.5 g/ha [1, 4]: ≤ 80%
pest or weed control at 121.5 g/ha [2, 5]: ≤ 80%
pest or weed control at 121.5 g/ha [2, 10]: > 80%

COc1cccc(C(c2cccc(OC)c2)[C@H](C)OC(=O)[C@H](C)NC(=O)c2c(O)c(OC)cc[n+]2[O-])c1 [Compound 36]
pest or weed control at 121.5 g/ha [1, 3]: ≤ 80%
pest or weed control at 121.5 g/ha [2, 5]: ≤ 80%

COc1cc[n+]([O-])c(C(=O)N[C@@H](C)C(=O)O[C@@H](C)C(c2ccc(C)cc2)c2ccc(C)cc2)c1O [Compound 39]
pest or weed control at 121.5 g/ha [1, 3]: > 80%
pest or weed control at 121.5 g/ha [1, 4]: ≤ 80%
pest or weed control at 121.5 g/ha [2, 5]: ≤ 80%

COc1cc[n+]([O-])c(C(=O)N[C@@H](C)C(=O)O[C@@H](C)[C@@H](c2ccccc2)c2ccc(F)cc2C)c1O [Compound 22]
pest or weed control at 100 ppm [1, 6]: > 80%
pest or weed control at 121.5 g/ha [1, 3]: > 80%
pest or weed control at 100 ppm [1, 7]: > 80%
pest or weed control at 121.5 g/ha [1, 4]: > 80%
pest or weed control at 100 ppm [2, 8]: > 80%
pest or weed control at 121.5 g/ha [2, 5]: > 80%
pest or weed control at 100 ppm [2, 9]: > 80%
pest or weed control at 121.5 g/ha [2, 10]: > 80%

CCOc1cc(F)ccc1C(c1ccc(F)cc1OCC)[C@H](C)OC(=O)[C@H](C)NC(=O)c1c(O)c(OC)cc[n+]1[O-] [Compound 32]
pest or weed control at 121.5 g/ha [1, 3]: ≤ 80%
pest or weed control at 121.5 g/ha [1, 4]: ≤ 80%
pest or weed control at 121.5 g/ha [2, 5]: ≤ 80%

COc1ccc(C(c2ccc(OC)cc2F)[C@H](C)OC(=O)[C@H](C)NC(=O)c2c(O)c(OC)cc[n+]2[O-])c(F)c1 [Compound 3]
pest or weed control at 100 ppm [1, 6]: > 80%
pest or weed control at 121.5 g/ha [1, 3]: > 80%
pest or weed control at 100 ppm [1, 7]: ≤ 80%
pest or weed control at 121.5 g/ha [1, 4]: ≤ 80%
pest or weed control at 100 ppm [2, 8]: > 80%
pest or weed control at 121.5 g/ha [2, 5]: > 80%
pest or weed control at 100 ppm [2, 9]: > 80%
pest or weed control at 121.5 g/ha [2, 10]: ≤ 80%

COc1cc[n+]([O-])c(C(=O)N[C@@H](C)C(=O)O[C@@H](C)[C@H](c2ccccc2)c2ccc(C)cc2F)c1O [Compound 33]
pest or weed control at 121.5 g/ha [1, 3]: > 80%
pest or weed control at 121.5 g/ha [1, 4]: ≤ 80%
pest or weed control at 121.5 g/ha [2, 5]: ≤ 80%

COc1cc[n+]([O-])c(C(=O)N[C@@H](C)C(=O)O[C@H](C(C)C)[C@H](C)Oc2ccccc2)c1O [Compound 10]
pest or weed control at 100 ppm [1, 6]: ≤ 80%
pest or weed control at 121.5 g/ha [1, 3]: > 80%
pest or weed control at 100 ppm [2, 8]: > 80%
pest or weed control at 121.5 g/ha [2, 5]: > 80%
pest or weed control at 100 ppm [2, 9]: > 80%
pest or weed control at 121.5 g/ha [2, 10]: > 80%
